This is an account of results in ChEMBL document CHEMBL5252673, “Development of thiazole-appended novel hydrazones as a new class of α-amylase inhibitors with anticancer assets: an in silico and in vitro approach” (RSC Med Chem, 2023).

pIC50: −log10 of the molar value. The source made the active and inactive calls. The rule behind the calls is not given here.

For data set [1], the target named is T1, Alpha amylase (Homo sapiens, UniProt P0DUB6).
T1 sequence (P0DUB6 whole entry): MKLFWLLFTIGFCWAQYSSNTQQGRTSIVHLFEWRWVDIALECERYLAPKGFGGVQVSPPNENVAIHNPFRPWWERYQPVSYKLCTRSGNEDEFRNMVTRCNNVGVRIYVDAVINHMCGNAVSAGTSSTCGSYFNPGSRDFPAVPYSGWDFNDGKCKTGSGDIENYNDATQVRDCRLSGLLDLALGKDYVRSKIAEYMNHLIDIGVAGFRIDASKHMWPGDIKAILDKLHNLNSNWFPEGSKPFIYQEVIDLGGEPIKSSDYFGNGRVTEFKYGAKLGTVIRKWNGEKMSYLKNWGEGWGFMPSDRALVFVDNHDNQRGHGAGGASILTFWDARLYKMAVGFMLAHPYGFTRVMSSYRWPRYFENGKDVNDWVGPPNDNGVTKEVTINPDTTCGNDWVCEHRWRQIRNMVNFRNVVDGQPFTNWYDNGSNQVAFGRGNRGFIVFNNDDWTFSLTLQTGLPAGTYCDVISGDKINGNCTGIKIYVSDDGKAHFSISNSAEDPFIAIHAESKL
Description: Inhibition of alpha-amylase (unknown origin) using starch as substrate incubated for 30 mins by microplate reader analysis.

A further data set concerns the target T2, Pancreatic alpha-amylase (Sus scrofa, UniProt P00690).
T2 sequence (P00690 whole entry): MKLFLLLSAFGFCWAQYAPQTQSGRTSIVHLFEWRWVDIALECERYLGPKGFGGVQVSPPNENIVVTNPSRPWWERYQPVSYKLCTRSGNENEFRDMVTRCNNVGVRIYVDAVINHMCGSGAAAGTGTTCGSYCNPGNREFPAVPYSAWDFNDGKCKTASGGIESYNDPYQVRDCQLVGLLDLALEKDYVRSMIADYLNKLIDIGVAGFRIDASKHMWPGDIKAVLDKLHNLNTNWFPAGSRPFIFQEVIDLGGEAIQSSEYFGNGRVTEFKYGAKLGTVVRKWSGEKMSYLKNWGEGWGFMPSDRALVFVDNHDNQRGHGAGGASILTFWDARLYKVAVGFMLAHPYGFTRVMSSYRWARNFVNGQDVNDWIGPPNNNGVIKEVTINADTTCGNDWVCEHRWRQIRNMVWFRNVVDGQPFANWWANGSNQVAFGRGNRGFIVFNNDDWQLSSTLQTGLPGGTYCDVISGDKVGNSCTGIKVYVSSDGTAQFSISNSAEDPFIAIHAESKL
Description: Inhibition of porcine pancreatic alpha-amylase using starch as substrate incubated for 10 mins by absorbance based assay.

Data set [2] deals with T1, Alpha amylase. The data set is described as follows: Inhibition of alpha-amylase (unknown origin) using p-nitrophenylR-D-maltoside as substrate incubated for 30 mins by […]. A general note: ELISA stands for enzyme-linked immunosorbent assay.
Data set [3] deals with COc1cc(/C=N/NC(=O)c2csc(Nc3ccc([N+](=O)[O-])cc3)n2)cc(OC)c1OC. The data set is described as follows: (§1) Uncompetitive inhibition of alpha-amylase (unknown origin) using starch as substrate assessed as decrease in Km incubated for 30 mins by UV-visible spectrophotometric analysis. As to conditions: Homo sapiens.
Data set [4] deals with O=C(N/N=C/c1ccc(O)cc1)c1csc(Nc2ccc([N+](=O)[O-])cc2)n1. The data set is described as §1. The conditions noted are these: Homo sapiens.
For data set [5], the system named is O=C(N/N=C/c1ccc(Cl)cc1)c1csc(Nc2ccc([N+](=O)[O-])cc2)n1. The description is as §1. As to conditions: Homo sapiens.
Data set [6] relates to COc1cc(/C=N/NC(=O)c2csc(Nc3ccc([N+](=O)[O-])cc3)n2)ccc1O. The description is as §1. As to conditions: Homo sapiens.
The subject of data set [7] is COc1cc(/C=N/NC(=O)c2csc(Nc3ccc([N+](=O)[O-])cc3)n2)cc(OC)c1OC. Description: (§2) Uncompetitive inhibition of alpha-amylase (unknown origin) using starch as substrate assessed as decrease in Vmax incubated for 30 mins by UV-visible spectrophotometric analysis. The conditions noted are these: Homo sapiens.
Data set [8] concerns O=C(N/N=C/c1ccc(O)cc1)c1csc(Nc2ccc([N+](=O)[O-])cc2)n1. The data set is described as §2. The conditions noted are these: Homo sapiens.
Data set [9] relates to O=C(N/N=C/c1ccc(Cl)cc1)c1csc(Nc2ccc([N+](=O)[O-])cc2)n1. The description is as §2. As to conditions: Homo sapiens.
In data set [10] the test system is COc1cc(/C=N/NC(=O)c2csc(Nc3ccc([N+](=O)[O-])cc3)n2)ccc1O. The description is as §2. The conditions noted are these: Homo sapiens.
Data set [11] concerns the target Alpha amylase (Homo sapiens) (UniProt P0DUB6). The data set is described as follows: Binding affinity to alpha-amylase (unknown origin) assessed as gibb's free energy change ar a temperature of 278.15 K by fluorescence quenching analysis.
For data set [12], the system named is A549. The data set is described as follows: Antiproliferative activity against human A549 cells assessed as inhibition of cell growth incubated for 48 hrs by MTT assay. It counts as functional, cell-based. The conditions noted are these: A549, 48 h. (Formazan colour is commonly taken as a measure of viable cells.)
Data set [13] addresses Alpha amylase (Homo sapiens) (UniProt P0DUB6). Description: Binding affinity to alpha-amylase (unknown origin) assessed as Stem-Volmer quenching constant at a temperature of 288.15 K by fluorescence quenching analysis.
The target is the same in data set [14]. Description: Binding affinity to alpha-amylase (unknown origin) assessed as gibb's free energy change ar a temperature of 283.15 K by fluorescence quenching analysis.
For data set [15] the target is unchanged. The data set is described as follows: Binding affinity to alpha-amylase (unknown origin) assessed as change in entropy by fluorescence quenching analysis.
Data set [16] has the same target. The data set is described as follows: Binding affinity to alpha-amylase (unknown origin) assessed as decrease in fluorescence intensity of tyrosine residue by Synchronous fluorescence analysis.
The target is the same in data set [17]. The data set is described as follows: Binding affinity to alpha-amylase (unknown origin) assessed as increase in intensity of absorption peak at 285 nm by […].
Data set [18] has the same target. The data set is described as follows: Binding affinity to alpha-amylase (unknown origin) assessed as increase in intensity of absorption peak at 280 nm by […].
The target in data set [19] is T1, Alpha amylase. The data set is described as follows: Inhibition of alpha-amylase (unknown origin) using starch as substrate preincubated with substrate for 15 mins followed by compound addition and measured after 15 mins by UV-VIS spectrophotometric analysis.
In a further data set the test system is MDA-MB-231. The data set is described as follows: Antiproliferative activity against human MDA-MB-231 cells assessed as inhibition of cell growth incubated for 48 hrs by MTT assay. As to conditions: MDA-MB-231, 48 h. It is filed as functional, cell-based.
In data set [20] the target is Alpha amylase (Homo sapiens) (UniProt P0DUB6). Description: Binding affinity to alpha-amylase (unknown origin) assessed as Stem-Volmer quenching constant at a temperature of 283.15 K by fluorescence quenching analysis.
The test system of a further data set is HCT-116. Description: Antiproliferative activity against human HCT-116 cells assessed as inhibition of cell growth incubated for 48 hrs by MTT assay. As to conditions: HCT-116, 48 h. It counts as functional, cell-based.
Data set [21] has as its target Alpha amylase (Homo sapiens) (UniProt P0DUB6). Description: Binding affinity to alpha-amylase (unknown origin) assessed as increase in absorption intensity by measuring appearance of new peak at 380 nm at 0.001 M by […].
Data set [22] has the same target. The data set is described as follows: Binding affinity to alpha-amylase (unknown origin) assessed as equilibrium binding constant at a temperature of 278.15 K by fluorescence quenching analysis.
For data set [23] the target is unchanged. The data set is described as follows: Binding affinity to alpha-amylase (unknown origin) assessed as assessed as non-uniform change in fluorescence intensity of tryptophan residue by Synchronous fluorescence analysis.
The target is the same in data set [24]. The data set is described as follows: Binding affinity to alpha-amylase (unknown origin) assessed as Stem-Volmer quenching constant at a temperature of 310.15 K by fluorescence quenching analysis.
Data set [25] shares this target. The data set is described as follows: Binding affinity to alpha-amylase (unknown origin) assessed as gibb's free energy change ar a temperature of 288.15 K by fluorescence quenching analysis.
Data set [26] has the same target. Description: Binding affinity to alpha-amylase (unknown origin) assessed as quenching constant at a temperature of 288.15 K by fluorescence quenching analysis.
Data set [27] shares this target. The data set is described as follows: Binding affinity to alpha-amylase (unknown origin) assessed as change in enthalpy by fluorescence quenching analysis.
The target is the same in data set [28]. The data set is described as follows: Binding affinity to alpha-amylase (unknown origin) assessed as quenching constant at a temperature of 283.15 K by fluorescence quenching analysis.
The target is the same in data set [29]. Description: Binding affinity to alpha-amylase (unknown origin) assessed as equilibrium binding constant at a temperature of 288.15 K by fluorescence quenching analysis.
Data set [30] deals with A549. Description: Induction of ROS in human A549 cells at sub IC50 concentration incubated for 24 hrs by H2DCFDA dye based fluorescence assay (reference value: 33.28%). It is filed as functional.
Data set [31] concerns the target Alpha amylase (Homo sapiens) (UniProt P0DUB6). Description: Binding affinity to alpha-amylase (unknown origin) assessed as equilibrium binding constant at a temperature of 310.15 K by fluorescence quenching analysis.
Data set [32] has the same target. Description: Binding affinity to alpha-amylase (unknown origin) assessed as quenching constant at a temperature of 278.15 K by fluorescence quenching analysis.
Data set [33] has the same target. The data set is described as follows: Binding affinity to alpha-amylase (unknown origin) assessed as gibb's free energy change ar a temperature of 310.15 K by fluorescence quenching analysis.
Data set [34] has the same target. Description: Binding affinity to alpha-amylase (unknown origin) assessed as equilibrium binding constant at a temperature of 283.15 K by fluorescence quenching analysis.
Another data set deals with MCF-10A. Description: Cytotoxicity against human MCF-10A assessed as reduction in cell viability upto 10 uM incubated for 48 hrs by MTT assay. It is filed as toxicity, cell-based.
The target in data set [35] is Alpha amylase (Homo sapiens) (UniProt P0DUB6). Description: Binding affinity to alpha-amylase (unknown origin) assessed as quenching constant at a temperature of 310.15 K by fluorescence quenching analysis.
The target is the same in data set [36]. The data set is described as follows: Binding affinity to alpha-amylase (unknown origin) assessed as Stem-Volmer quenching constant at a temperature of 278.15 K by fluorescence quenching analysis.

For orientation: IC50 means the concentration that inhibits the measured activity by half. `Fc1cccc(-c2nc3scc(-c4ccc(Br)cc4)n3n2)c1` yielded an IC50 against Alpha amylase [1] of 3.2 µM. This counts as single-digit micromolar.
Broadly, the pIC50 is −log10 of the IC50, conventionally taken in molar units. For the compound `COc1ccc(CNC(=O)Nc2sc3c(c2C#N)CCCC3)c(OC)c1`, the negative logarithm of the IC50 (pIC50) at Pancreatic alpha-amylase was 6.23.
As for `O=[N+]([O-])c1ccc(/C(CSc2nnc3c(n2)[nH]c2ccccc23)=N\Nc2nc(-c3ccc([N+](=O)[O-])cc3)co2)cc1`, the IC50 on Alpha amylase [2] was found to be 1.2 µM.
Take `Cc1cccc(-c2nc3scc(-c4cccc([N+](=O)[O-])c4)n3n2)c1`: the IC50 against Alpha amylase [1] was found to be 1.1 µM.
In general, Km refers to the concentration of substrate that gives half-maximal velocity. What is called Vmax is the top rate of the reaction or transport when substrate is in excess. Turning to “Alpha amylase (Homo sapiens) (from UniProt P0DUB6)”, the Km is 1190 µM in [3], 830 µM in data set [4], 804 µM in data set [5] and 1030 µM in data set [6]. The Vmax in [7] stood at 3.24 µmol/min; in data set [8], 0.916 µmol/min; in [9], 1.56 µmol/min; in data set [10] it was 1.81 µmol/min.
With `O=C(N/N=C/c1ccc(O)cc1)c1csc(Nc2ccc([N+](=O)[O-])cc2)n1`, the deltaG in data set [11] was -32.3 kJ/mol; in data set [14] it was -28 kJ/mol; in data set [25], -23.8 kJ/mol; in data set [33], -2.12 kJ/mol. Also, the values for the pIC50 with A549 [12], in the data set with MDA-MB-231 and in the data set with HCT-116 were 5.13, 4.94 and 5.08, respectively. For the same compound, the KSV was 0.24 10^5L/mol/s in [13], 0.93 10^5L/mol/s in data set [20], 0.188 10^5L/mol/s in data set [24] and 1.6 10^5L/mol/s in [36]. Further, in data set [15], the deltaS is -847 J/mol/K. Also, the result in data set [16], in [21] and in [23] was Active. The Activity entry was “Dose-Dependent Effect” in data set [17], “Dose-Dependent Effect” in data set [18], 64.21% in the data set with A549 [30] and “Non-Toxic” in the data set with MCF-10A. The half-maximal inhibitory concentration (IC50) on Alpha amylase [19] amounted to 0.23 µM. Moreover, the Kb in [22] was 6.32 10^6L/mol; in data set [29] it was 0.00254 10^6L/mol; in data set [31], 442000 L/mol; in data set [34] it was 0.102 10^6L/mol. The Kq in [26] is 2.46 10^13L/mol/s; in data set [28], 9.36 10^13L/mol/s; in [32], 16.8 10^13L/mol/s; in [35], 1.88 10^13L/mol/s. In addition, the deltaH in [27] is -26.8 kJ/mol.
As to `Cc1ccc(-c2csc(N/N=C(/CSc3nnc4c(n3)[nH]c3ccccc34)c3ccc([N+](=O)[O-])cc3)n2)cc1`, the concentration for half-maximal inhibition (IC50) at Alpha amylase [2] turned out to be 1.2 µM. In other words, the single-digit micromolar range.
